Earlier results on nine molecules are cited in patent US5935597A, “Drug delivery devices and methods for treatment of viral and microbial infections and wasting syndromes” (Cryopreservation Technologies CC, priority 1995, dated 1999).

For one series, the system named is human cancer xenografts. The following applies: intraperitoneal injection, nude mice; cited from earlier work.
In a further series the test system is human cancer. Conditions: cited from earlier work.
The next series relates to mouse sarcoma allograft. The following applies: in vivo; cited from earlier work.
For series [1] the following is noted: appetite enhancers, wasting syndromes; cited from earlier work.
The subject of series [2] is HIV. The following applies: certain cultured cell lines; cited from earlier work.
Series [3] concerns Human Herpes Virus 6 (HHV-6). Conditions: certain cultured cell lines; cited from earlier work.
In series [4] the test system is HIV. Conditions: cited from earlier work.
A further series relates to HIV-1. Conditions: cells infected with HIV-1 isolates, in vitro; cited from earlier work.
A further series has as its system HIV-2. Conditions: cells infected with HIV-2 isolates, in vitro; cited from earlier work.

As for `CNC=O` [NMF, N-methylformamide], in the series with human cancer xenografts, the “growth of human cancer xenografts” value is reported as “slow the growth of certain human cancer xenografts”. Besides, the anticancer activity result in the series on human cancer (oral, human patients with cancer of the head and neck (Planting et al.)) was “only minimal activity”. Moreover, in the series with human cancer (oral, human patients with cancer of the head and neck (Vogel et al.)), the hepatotoxicity and response entry is listed as “hepatotoxicity with no beneficial response”.

As for `NC=O` [formamide], the toxicity entry in the series with mouse sarcoma allograft is reported as “toxic side-effects”.

For `CCCCCc1cc(O)c2c(c1)OC(C)(C)[C@@H]1CCC(C)=C[C@@H]21` [dronabinol], in series [1], the weight gain result was “tended to gain only fat and not overall body mass”.

Take `C[S+](C)[O-]` [DMSO, dimethylsulfoxide]: the “in vitro replication of HIV” value in the series on HIV [2] was “inhibit in vitro replication of HIV”. Besides, the “in vitro replication of HHV-6” value in series [3] was “inhibit in vitro replication of HIV and Human Herpes Virus 6 (HHV-6)”. In the series on human cancer (human cancer patients), the objective response result is reported as “no objective response”.

Regarding `CC(=O)O[C@]1(C(C)=O)CC[C@H]2[C@@H]3C=C(C)C4=CC(=O)CC[C@]4(C)[C@H]3CC[C@@]21C` [megestrol acetate], the weight gain result in series [1] is “tended to gain only fat and not overall body mass”.

Turning to `Cc1cn([C@H]2C=C[C@@H](CO)O2)c(=O)[nH]c1=O` [d4T, stavudine], in the series on HIV [4], the anti-HIV activity entry is on record as “active against HIV”.

B1: MIP-1α: chemokine secreted by CD8+ T cells (protein, UniProt P10147 24-92, looked up)
C-C motif chemokine 3: SLAADTPTACCFSYTSRQIPQNFIADYFETSSQCSKPGVIFLTKRSRQVCADPSEEWVQKYVSDLELSA
On to B1, for which the “HIV-1 p24 antigen production” value in the series on HIV-1 and with HIV-2 was “suppress HIV-1 p24 antigen production” each time.

B2: MIP-1β: chemokine secreted by CD8+ T cells (protein, UniProt P13236 24-92, looked up)
C-C motif chemokine 4: APMGSDPPTACCFSYTARKLPRNFVVDYYETSSLCSQPAVVFQTKRSKQVCADPSESWVQEYVYDLELN
modifications: ends and bridges not checked
notes: chemokine secreted by CD8+ T cells
Consider B2, for which the “HIV-1 p24 antigen production” value in the series on HIV-1 and with HIV-2 was “suppress HIV-1 p24 antigen production” throughout.

B3: RANTES: chemokine secreted by CD8+ T cells (protein, UniProt P13501 24-91, looked up)
C-C motif chemokine 5: SPYSSDTTPCCFAYIARPLPRAHIKEYFYTSGKCSNPAVVFVTRKNRQVCANPEKKWVREYINSLEMS
Regarding B3, the “HIV-1 p24 antigen production” value with HIV-1 and with HIV-2 was “suppress HIV-1 p24 antigen production” each time.
